Test results taken from the NIST ThermoML archive (doi:10.1021/je100089s).

Assay: xn = mol fraction of the nth substance listed
Details: Liquid, Vibrating tube method

OCCO [1,2-ethanediol] + C[S+](C)[O-]
mass density [kg/m3]
Details	101 kPa	10000 kPa	25000 kPa	50000 kPa	75000 kPa	100000 kPa
278.15 K, x2 = 0	1123.77	1127.65	1133.2	1141.71	1149.55	1157.24
278.15 K, x2 = 0.00452	1123.78	–	–	–	–	–
278.15 K, x2 = 0.00721	1123.81	–	–	–	–	–
278.15 K, x2 = 0.0181	–	1127.79	1133.35	1141.89	1149.87	1157.59
278.15 K, x2 = 0.01811	1123.89	–	–	–	–	–
278.15 K, x2 = 0.03033	1123.98	–	–	–	–	–
278.15 K, x2 = 0.04027	1124.05	–	–	–	–	–
278.15 K, x2 = 0.0403	–	1127.98	1133.57	1142.21	1150.25	1158.01
278.15 K, x2 = 0.07007	1124.18	–	–	–	–	–
278.15 K, x2 = 0.0701	–	1128.13	1133.74	1142.44	1150.68	1158.48
278.15 K, x2 = 0.1097	1124.31	1128.3	1133.94	1142.73	1151.17	1159.03
278.15 K, x2 = 0.1408	1124.41	1128.43	1134.12	1142.98	1151.53	1159.45
278.15 K, x2 = 0.1934	1124.41	1128.44	1134.19	1143.24	1151.93	1159.97
278.15 K, x2 = 0.234	1124.34	1128.39	1134.22	1143.4	1152.14	1160.33
278.15 K, x2 = 0.3244	1124.05	1128.13	1134.17	1143.66	1152.48	1160.9
278.15 K, x2 = 0.3764	1123.76	1127.85	1134.01	1143.73	1152.55	1161.23
278.15 K, x2 = 0.4429	1123.28	1127.37	1133.7	1143.69	1152.53	1161.47
278.15 K, x2 = 0.4892	1122.88	1126.97	1133.44	1143.64	1152.45	1161.74
278.15 K, x2 = 0.5654	1122.14	1126.24	1132.95	1143.45	1152.24	1162
278.15 K, x2 = 0.6298	1121.26	–	–	–	–	–
278.15 K, x2 = 0.6946	1120.52	–	–	–	–	–
288.15 K, x2 = 0	–	1120.87	1126.51	1135.26	1143.65	1151.55
288.15 K, x2 = 0.0181	–	1120.9	1126.66	1135.53	1143.78	1151.74
288.15 K, x2 = 0.0403	–	1121	1126.79	1135.69	1144	1152.03
288.15 K, x2 = 0.0701	–	1121.06	1126.89	1135.92	1144.4	1152.42
288.15 K, x2 = 0.1097	–	1121.09	1126.97	1136.1	1144.77	1152.92
288.15 K, x2 = 0.1408	–	1121.09	1127.02	1136.28	1145.05	1153.32
288.15 K, x2 = 0.1934	–	1121	1127.02	1136.35	1145.29	1153.81
288.15 K, x2 = 0.234	–	1120.87	1127.02	1136.51	1145.4	1154.03
288.15 K, x2 = 0.3244	1115.95	1120.42	1126.73	1136.43	1145.62	1154.61
288.15 K, x2 = 0.3764	1115.49	1119.99	1126.45	1136.4	1145.68	1154.78
288.15 K, x2 = 0.4429	1114.8	1119.41	1126.08	1136.29	1145.64	1154.83
288.15 K, x2 = 0.4892	1114.25	1118.92	1125.69	1136.07	1145.55	1154.79
288.15 K, x2 = 0.5654	1113.29	1118.05	1125.01	1135.67	1145.31	1154.87
288.15 K, x2 = 0.6298	1112.27	–	–	–	–	–
288.15 K, x2 = 0.6946	1111.32	1116.19	1123.4	1134.56	1144.55	1154.68
288.15 K, x2 = 0.8142	1109.13	–	–	–	–	–
298.15 K, x2 = 0	–	1113.97	1119.78	1128.78	1137.41	1145.51
298.15 K, x2 = 0.0181	–	1114	1119.85	1128.92	1137.62	1145.75
298.15 K, x2 = 0.0403	–	1114.01	1119.92	1129.12	1137.93	1145.93
298.15 K, x2 = 0.0701	–	1114.01	1119.95	1129.25	1138.31	1146.24
298.15 K, x2 = 0.1097	–	1113.67	1119.88	1129.29	1138.51	1146.54
298.15 K, x2 = 0.1408	1109.42	1113.44	1119.71	1129.45	1138.73	1146.83
298.15 K, x2 = 0.1934	1109.06	1112.87	1119.4	1129.48	1138.98	1147.29
298.15 K, x2 = 0.234	1108.72	1112.42	1119.03	1129.27	1139.19	1147.46
298.15 K, x2 = 0.3244	1107.82	1111.54	1118.39	1128.95	1139.38	1147.77
298.15 K, x2 = 0.3764	1107.21	1110.95	1117.96	1128.79	1139.43	1147.93
298.15 K, x2 = 0.4429	1106.29	–	–	1128.43	1139.4	1148.01
298.15 K, x2 = 0.4892	1105.6	1109.49	–	1128.14	1139.31	1147.94
298.15 K, x2 = 0.5654	1104.44	1108.61	1116.04	1127.67	1139.23	1147.85
298.15 K, x2 = 0.6946	1102.13	1106.65	1114.43	1126.58	1138.74	1147.55
298.15 K, x2 = 0.8142	1099.6	1104.54	1112.6	1125.27	1137.98	1146.87
298.15 K, x2 = 0.867	1098.37	–	–	–	–	–
298.15 K, x2 = 0.9266	1097.09	–	1110.81	1123.79	1137.07	1146.03
298.15 K, x2 = 0.9836	–	1101.52	–	1123.02	–	–
298.15 K, x2 = 0.9968	1095.42	–	–	–	–	–
308.15 K, x2 = 0	–	1107.05	1112.97	1122.28	1131.41	1139.57
308.15 K, x2 = 0.0181	–	1107.03	1113.01	1122.41	1131.6	1139.78
308.15 K, x2 = 0.0403	–	1106.95	1112.98	1122.46	1131.72	1139.87
308.15 K, x2 = 0.07007	1102.45	–	–	–	–	–
308.15 K, x2 = 0.0701	–	1106.68	1112.81	1122.47	1131.86	1140.08
308.15 K, x2 = 0.1097	1102.12	1106.18	1112.54	1122.52	1132.17	1140.24
308.15 K, x2 = 0.1408	1101.88	1105.87	1112.37	1122.47	1132.33	1140.54
308.15 K, x2 = 0.1934	1101.33	1105.29	1111.97	1122.32	1132.37	1140.74
308.15 K, x2 = 0.234	1100.86	1104.74	1111.63	1122.23	1132.39	1140.88
308.15 K, x2 = 0.3244	1099.65	1103.53	1110.76	1121.85	1132.45	1140.94
308.15 K, x2 = 0.3764	1098.89	–	–	1121.58	1132.41	1140.97
308.15 K, x2 = 0.4429	1097.76	1101.57	1109.29	1121.09	1132.2	1140.85
308.15 K, x2 = 0.4892	1096.94	1100.74	1108.61	1120.71	1132.04	1140.71
308.15 K, x2 = 0.5654	–	1099.47	1107.59	1120.07	1131.68	1140.47
308.15 K, x2 = 0.6298	1094.18	–	–	–	–	–
308.15 K, x2 = 0.6946	1092.91	1097.4	1105.69	1118.74	1130.89	1139.72
308.15 K, x2 = 0.8142	1090.07	1094.91	1103.81	–	1129.86	1138.6
308.15 K, x2 = 0.9266	1087.25	1092.99	1101.96	1115.8	1128.85	1137.41
308.15 K, x2 = 0.9577	1086.43	–	–	–	–	–
308.15 K, x2 = 0.9836	1085.76	1091.87	1100.89	1115.04	1128.14	1136.73
308.15 K, x2 = 0.992	1085.53	–	–	–	–	–
308.15 K, x2 = 0.9968	1085.39	–	–	–	–	–
323.15 K, x2 = 0	1092.12	–	–	1112.75	1122.55	1130.66
323.15 K, x2 = 0.00452	1092.05	–	–	–	–	–
323.15 K, x2 = 0.00721	1092.03	–	–	–	–	–
323.15 K, x2 = 0.0181	–	–	–	1112.77	1122.62	1130.77
323.15 K, x2 = 0.01811	1091.95	–	–	–	–	–
323.15 K, x2 = 0.03033	1091.83	–	–	–	–	–
323.15 K, x2 = 0.04027	1091.72	–	–	–	–	–
323.15 K, x2 = 0.0403	–	–	–	1112.8	1122.72	1130.87
323.15 K, x2 = 0.07007	1091.39	–	–	–	–	–
323.15 K, x2 = 0.0701	–	–	1102.37	1112.82	1122.84	1130.96
323.15 K, x2 = 0.1097	1090.85	1095.4	1102.05	1112.71	1122.87	1131
323.15 K, x2 = 0.1408	1090.44	1095	1101.79	1112.64	1122.91	1131.06
323.15 K, x2 = 0.1934	1089.61	1094.25	1101.25	1112.4	1122.85	1130.99
323.15 K, x2 = 0.234	–	1093.65	1100.8	1112.23	1122.77	1130.94
323.15 K, x2 = 0.3244	1087.33	1092.16	1099.69	1111.61	1122.44	1130.63
323.15 K, x2 = 0.3764	1086.33	1091.26	1098.98	1111.18	1122.18	1130.38
323.15 K, x2 = 0.4429	1084.93	1090	1097.94	1110.52	1121.69	1129.92
323.15 K, x2 = 0.4892	1083.92	–	1097.2	–	1121.34	1129.57
323.15 K, x2 = 0.5654	1082.23	1087.55	–	1109.22	1120.75	1128.99
323.15 K, x2 = 0.6298	1080.61	–	–	–	–	–
323.15 K, x2 = 0.6946	1079.07	1084.73	1093.6	1107.58	1119.48	1127.72
323.15 K, x2 = 0.8142	1075.74	1081.78	1091.06	1105.68	1117.9	1126.09
323.15 K, x2 = 0.867	1074.15	–	–	–	–	–
323.15 K, x2 = 0.9266	1072.5	1078.85	–	1103.78	1116.27	1124.43
323.15 K, x2 = 0.9577	1071.55	–	–	–	–	–
323.15 K, x2 = 0.9836	1070.76	1077.32	1087.21	–	1115.35	1123.49
323.15 K, x2 = 0.992	1070.5	–	–	–	–	–
323.15 K, x2 = 0.9968	1070.35	–	–	–	–	–
